Source: patent publication US20240246916A1, “7-NITRO-8-HYDROXYQUINOLINE DERIVATIVES, PREPARATION METHOD THEREFORE AND MEDICAL USE THEREOF” (Jiangsu Yahong Meditech Co., Ltd., priority 2021, published 2024)
≈ marks a conversion by molar mass, not a printed value. Read-outs that look alike come from different tables or passages of the source.

How the values were obtained:
Type in all cases: cell-based
[1] = test system: Acinetobacter baumannii (carbapenem-resistant clinical isolates; ATCC19606); test: MIC by micro broth dilution (CLSI), Acinetobacter baumannii; details: Acinetobacter baumannii; for MIC50 / MIC90: ATCC19606
Text: (§1) The test bacteria were one strain of clinically isolated carbapenem-resistant Escherichia coli, two strains of carbapenem-resistant Acinetobacter baumannii, two strains of methicillin-resistant Staphylococcus aureus, two strains of sensitive Staphylococcus aureus, and 7 strains of Klebsiella pneumoniae. Duplicate strains isolated from the same patient were eliminated. There were also […] quality control strains Escherichia coli ATCC25922, Acinetobacter baumannii ATCC19606, Staphylococcus aureus ATCC29213, Klebsiella pneumoniae ATCC BAA-1705, ATCC 43816, ATCC BAA-2472, ATCC-BAA-1898, ATCC-BAA-1899, NCTC 13440 and ATCC-BAA-2470. There were 24 strains in total.
(§2) According to the recommendations of relevant documents of the American Clinical and Laboratory Standards Institute (CLSI), the micro broth dilution method was used to determine the MIC of the compounds of the present invention against clinically isolated strains. • 3.1 Formulation of antibacterial drug: All the compounds of the present invention were dissolved in DMSO. The drug concentration range was 128 mg/L to 0.06 mg/L. • 3.2 Culture medium: The drug susceptibility test used cation adjusted Mueller-Hinton broth (CAMHB). • 3.3 Amount of inoculum: The test bacteria cultured overnight were adjusted to 0.5 McFarland turbidity by the direct colony suspension method, and diluted 100 folds, the final inoculum amount was 10^5 CFU/mL. • 3.4 Culture conditions: The test bacteria were cultured at 35±2° C. for 20 hours in air.
(§3) The drug susceptibility test results were interpretated by reference to CLSI 2019 M100 29th edition criteria.
(§4) The quality control strains of the drug susceptibility test were Escherichia coli ATCC 25922, Acinetobacter baumannii ATCC 19606, Staphylococcus aureus ATCC 29213, Klebsiella pneumoniae ATCC BAA-1705, ATCC 43816, ATCC BAA-2472, ATCC-BAA-1898, ATCC-BAA-1899, NCTC 13440 and ATCC-BAA-2470.
(§5) The results of drug susceptibility test were statistically analyzed by WHONET software (version 5.6).

[2] = test system: Staphylococcus aureus (methicillin-resistant and sensitive clinical isolates; ATCC29213); test: MIC by micro broth dilution (CLSI), Staphylococcus aureus
Text: as §1, §2, §3, §4, §5

[3] = test system: Escherichia coli (carbapenem-resistant clinical isolate; ATCC25922); test: MIC by micro broth dilution (CLSI), Escherichia coli; details: for MIC50 / MIC90 / MIC: Escherichia coli
Text: as §1, §2, §3, §4, §5

[4] = test system: Prostate cancer cell line LNcaP; test: Inhibitory activity on cancer cells, CellTiter-Glo viability, LNcaP; details: Homo sapiens, 72 hours treatment
Method: (§6) HUVEC (purchased from Allcells Biological Technology (Shanghai) Co., Ltd.); UM-UC-3 (ATCC); LNCaP (ATCC); RM-1 (purchased from Nanjing Cobioer Biosciences Co., Ltd.) (1) On the first day, the cells were seeded in a 96-well plate, and the previous medium was poured off. 5 mL of DPBS was added to wash the cells, and then removed by a pipette and discarded. Then, 1 mL of trypsin (0.25%) was added, and the plate was placed in a cell culture incubator at 37 °C, 5% CO2 for digestion, and taken out after about 2 to 5 minutes. New corresponding medium was added, and pipetted to resuspend the cells evenly, and the cells were then counted with an automated cell counter. Regarding HUVEC, the medium used was endothelial cell complete medium; regarding UM-UC-3, the medium used was 89 v % EMEM+10 v % fetal bovine serum+1 v % penicillin-streptomycin double anti-body; regarding LNcaP, the medium used was 89 v % RPM11640+10 v % fetal bovine serum+1 v % penicillin-streptomycin double anti-body; and regarding RM1, the medium used was 89 v % DMEM+10 v % fetal bovine serum+1 v % penicillin-streptomycin double anti-body. (2) HUVEC cells were seeded in columns 1 to 11 of a 96-well plate (Corning, Cat. No. 3610) at a density of 2000 cells per well in 100 μL of medium, and the medium free of cell was added to the wells of column 12. The other three types of cells were also seeded, wherein UM-UC-3 and RM-1 cells were seeded at a density of 3000 cells per well, and LNCap cells were seeded at a density of 5000 cells per well. Then, the plate was placed in an incubator at 37° C., 5% CO2 for 24 hours. (3) On the second day, the compounds of the present invention and the reference drug nitroxoline (obtained according to the preparation method disclosed in the prior art) were diluted in gradient (2.5 folds, started at 100 μmol) to obtain 8 dose points (there were a total of 8 columns of wells; the first column of wells had the highest concentration, the concentration decreased in turn, and the last column of wells had the lowest concentration). 10 μL of the compound diluted in gradient was added to the 100 μL of cells in column 1 to column 10 with an 8-channel pipette. 10 μL of the corresponding medium containing 0.33 v % DMSO was added to column 11 and column 12. The plate was incubated in an incubator at 37° C., 5% CO2 for 72 hours (note: column 11 was used as MAX well with cells and no compounds; and column 12 was used as MIN well with no cells and no compounds). (4) After treating with the compounds of the present invention for 72 hours, the cell viability detection reagents in the above CellTiter-Glo® assay kit were added to the 96-well plate at 50 μL per well according to the instructions. The plate was shaken on a shaker in the dark for 5 to 10 minutes, and then the cell activity was determined by a multifunctional microplate reader. Finally, the growth inhibition of the compounds of the present invention on the cells was plotted by XLFIT 5.3 software, and the IC50 values of the compounds of the present invention were calculated.

[5] = test system: Bladder cancer cell line UM-UC-3; test: Inhibitory activity on cancer cells, CellTiter-Glo viability, UM-UC-3; details: Homo sapiens, UMUC3, 72 hours treatment
Method: as §6

[6] = test system: Endothelial cell line HUVEC; test: Inhibitory activity on cells, CellTiter-Glo viability, HUVEC; details: Homo sapiens, 72 hours treatment
Method: as §6

[7] = Clinical strain, read-out: MIC50
[8] = Clinical strain, read-out: MIC90
[9] = Standard strain ATCC19606, read-out: MIC
[10] = Standard strain ATCC29213, read-out: MIC
[11] = ATCC25922, Clinical strain, read-out: MIC50
[12] = ATCC25922, Clinical strain, read-out: MIC90
[13] = Standard strain ATCC25922, read-out: MIC

MIC50 [1, 7] [mg/L] | MIC90 [1, 8] [mg/L] | MIC [1, 9] [mg/L] | MIC50 [2, 7] [mg/L] | MIC90 [2, 8] [mg/L] | MIC [2, 10] [mg/L] | MIC50 [3, 11] [mg/L] | MIC90 [3, 12] [mg/L] | MIC [3, 13] [mg/L] | IC50 [4] [µM] | IC50 [5] [µM] | Structure (SMILES) | IC50 [6] [µM] | further results
> 128 | > 128 | > 128 | > 128 | > 128 | > 128 | > 128 | > 128 | > 128 | 35.4 | 38 | O=[N+]([O-])c1ccc2c(N3CCCC3)ccnc2c1O [Example 13, 7-Nitro-4-(pyrrolidin-1-yl)quinolin-8-ol] | > 50 | –
– | – | – | – | – | – | – | – | – | > 100 | > 100 | O=[N+]([O-])c1ccc2c(NC3COC3)ccnc2c1O [Example 19, 7-Nitro-4-(3-oxetanylamino)quinolin-8-ol] | > 100 | –
128 (≈ 549 µM) | 128 (≈ 549 µM) | 128 (≈ 549 µM) | 128 (≈ 549 µM) | 128 (≈ 549 µM) | 128 (≈ 549 µM) | 64 (≈ 274 µM) | 64 (≈ 274 µM) | 128 (≈ 549 µM) | 23.6 | 16.9 | CN(C)c1ccnc2c(O)c([N+](=O)[O-])ccc12 [Example 17, 4-(Dimethylamino)-7-nitroquinolin-8-ol] | 27.4 | –
2 (≈ 8.9 µM) | 4 (≈ 17.8 µM) | 4 (≈ 17.8 µM) | 2 (≈ 8.9 µM) | 2 (≈ 8.9 µM) | 2 (≈ 8.9 µM) | 4 (≈ 17.8 µM) | 4 (≈ 17.8 µM) | 4 (≈ 17.8 µM) | 4.1 | 7.5 | O=[N+]([O-])c1ccc2c(Cl)ccnc2c1O [Example 12, 4-Chloro-7-nitroquinolin-8-ol] | 7.5 | inhibitory effect against Escherichia coli compared with the reference drug nitroxoline ([3]; MIC comparison): comparable to that of the reference drug nitroxoline
> 128 | > 128 | > 128 | 64 (≈ 250 µM) | 128 (≈ 500 µM) | 128 (≈ 500 µM) | 128 (≈ 500 µM) | 128 (≈ 500 µM) | > 128 | 35.2 | 36.2 | O=[N+]([O-])c1ccc2c(-n3ccnc3)ccnc2c1O [Example 15, 4-(1H-Imidazol-1-yl)-7-nitroquinolin-8-ol] | 32.3 | –
> 128 | > 128 | > 128 | > 128 | > 128 | > 128 | > 128 | > 128 | 128 (≈ 406 µM) | – | – | CN(C)Cc1cc([N+](=O)[O-])c(O)c2nccc(C(F)(F)F)c12 [Example 104, 5-((dimethylamino)methyl)-7-nitro-4-(trifluoromethyl)quinolin-8-ol] | – | –
8 (≈ 35.5 µM) | 16 (≈ 70.9 µM) | 8 (≈ 35.5 µM) | 4 (≈ 17.7 µM) | 4 (≈ 17.7 µM) | 4 (≈ 17.7 µM) | 16 (≈ 70.9 µM) | 16 (≈ 70.9 µM) | 8 (≈ 35.5 µM) | – | – | [2H]c1ccc2c(Cl)cc([N+](=O)[O-])c(O)c2n1 [Example 113, 5-chloro-7-nitroquinolin-2-d-8-ol] | – | –
32 (≈ 111 µM) | 64 (≈ 223 µM) | 32 (≈ 111 µM) | 16 (≈ 55.7 µM) | 64 (≈ 223 µM) | 64 (≈ 223 µM) | 64 (≈ 223 µM) | 64 (≈ 223 µM) | 64 (≈ 223 µM) | – | – | O=[N+]([O-])c1ccc2c(CN3CCCCC3)ccnc2c1O [Example 85, 7-nitro-4-(piperidin-1-yl-methyl)quinolin-8-ol] | – | –
> 128 | > 128 | > 128 | 32 (≈ 98.8 µM) | 64 (≈ 198 µM) | 32 (≈ 98.8 µM) | > 128 | > 128 | > 128 | – | – | O=[N+]([O-])c1cc(Cl)c2cc(CN3CCOCC3)cnc2c1O [Example 96, 5-chloro-3-(morpholinomethyl)-7-nitroquinolin-8-ol] | – | –
– | – | – | – | – | – | – | – | – | – | – | O=[N+]([O-])c1c(F)cc2cccnc2c1O [Example 122, 6-fluoro-7-nitroquinolin-8-ol] | – | MIC50 ([1]; clinical strains, micro broth dilution, CAMHB, 35±2° C., 20 hours, read-out: MIC50 Acinetobacter baumannii Clinical strain): 64 mg/L (≈ 307 µM); MIC90 ([1]; clinical strains, micro broth dilution, CAMHB, 35±2° C., 20 hours, read-out: MIC90 Acinetobacter baumannii Clinical strain): 64 mg/L (≈ 307 µM); MIC ([1]; standard strain ATCC19606, micro broth dilution, CAMHB, 35±2° C., 20 hours, read-out: MIC Acinetobacter baumannii Standard strain ATCC19606): 64 mg/L (≈ 307 µM); MIC50 ([2]; clinical strains, micro broth dilution, CAMHB, 35±2° C., 20 hours, read-out: MIC50 Staphylococcus aureus Clinical strain): 64 mg/L (≈ 307 µM); MIC90 ([2]; clinical strains, micro broth dilution, CAMHB, 35±2° C., 20 hours, read-out: MIC90 Staphylococcus aureus Clinical strain): 64 mg/L (≈ 307 µM); MIC ([2]; standard strain ATCC29213, micro broth dilution, CAMHB, 35±2° C., 20 hours, read-out: MIC Staphylococcus aureus Standard strain ATCC29213): 128 mg/L (≈ 615 µM); MIC50 ([3]; clinical strains, micro broth dilution, CAMHB, 35±2° C., 20 hours, read-out: MIC50 Escherichia coli Clinical strain): 64 mg/L (≈ 307 µM); MIC90 ([3]; clinical strains, micro broth dilution, CAMHB, 35±2° C., 20 hours, read-out: MIC90 Escherichia coli Clinical strain): 64 mg/L (≈ 307 µM); MIC ([3]; standard strain ATCC25922, micro broth dilution, CAMHB, 35±2° C., 20 hours, read-out: MIC Escherichia coli Standard strain ATCC25922): 64 mg/L (≈ 307 µM)
> 128 | > 128 | 128 | > 128 | > 128 | > 128 | > 128 | > 128 | 128 | – | – | O=[N+]([O-])c1cc(CN2CCCCC2)c2cccnc2c1O [Example 91, 7-nitro-5-(piperidin-1-ylmethyl)quinolin-8-ol acetate] | – | –
32 (≈ 99.5 µM) | 128 (≈ 398 µM) | 32 (≈ 99.5 µM) | 16 (≈ 49.7 µM) | 16 (≈ 49.7 µM) | 16 (≈ 49.7 µM) | > 128 | > 128 | 64 (≈ 199 µM) | – | – | O=[N+]([O-])c1cc(Cl)c2cc(CN3CCCCC3)cnc2c1O [Example 92, 5-chloro-7-nitro-3-(piperidin-1-ylmethyl)quinolin-8-ol] | – | –
8 (≈ 34.7 µM) | 32 (≈ 139 µM) | 32 (≈ 139 µM) | 2 (≈ 8.69 µM) | 4 (≈ 17.4 µM) | 4 (≈ 17.4 µM) | 64 (≈ 278 µM) | 128 (≈ 556 µM) | 32 (≈ 139 µM) | – | – | O=[N+]([O-])c1ccc2cc(C3CC3)cnc2c1O [Example 112, 3-cyclopropyl-7-nitroquinolin-8-ol] | – | –
